System: Wildtype (WT) mice fed high-fat chow
Assay: Diet-induced obesity, wildtype mice on high-fat chow, 12 weeks
Format: in vivo, mouse
Procedure: (G) At the end of treatment, quadriceps muscles were isolated and exposed ex vivo to either 10 mM glucose or 1 mM palmitate-BSA in the presence of 1×/min electrical stimulation. […] Curves depict interquartile range and single values; histograms depict single values and mean±s.e.m.; n=10 mice/group in A-E; n=3 mice/group in F-H. *, P<0.05 vs same-diet vehicle control, 1-way ANOVA with Tukey's multi-comparison; #, P<0.05 vs vehicle, 2-way ANOVA test.
Metabolic cages. VO2 (ml/h/kg) and energy expenditure to body weight (kcal/h/kg) were assessed via indirect calorimetry using the TSE Automated Phenotyping System PhenoMaster (TSE system, Chesterfield, Mo.). Mice were singly housed in their home cages in an enclosed environmental chamber (part of the TSE system) with controlled temperature and light/dark cycles (12 hours each; 6 AM-6 PM). […] Measurements of CO2 production and O2 consumption occurred using the attached gas analyzer to assess energy expenditure. In addition, physical activity in three dimensions was monitored via infrared beam breaks through frames mounted on the perimeter of the metabolic cages. Enrichment items were omitted to avoid insulation from sensors and infrared light beam path obstruction. Results are expressed as 12 hour-period values (light/dark; 10 values per mouse). Metabolic cage assays were conducted blinded to treatment groups.
2-NBDG uptake assay and glycemia/lactate monitoring. 2-NBDG uptake assay in live myofibers was conducted adapting previously reported conditions (Zou et al., 2005). FDB muscles were collected and carefully treated with collagenase type II and hand pipetting to liberate single myofibers, following reported procedures (Demonbreun and McNally, 2015). Myofibers from two FDB muscles were collected in 1 ml Ringer's solution (for 1 l, 7.2 g NaCl, 0.17 g CaCl2, 0.37 g KCl; pH, 7.4). 200 μl of myofiber suspension were dispensed per well of chambered coverglass (#155382; Thermo Fisher, Waltham, Mass.) and imaged as baseline condition for both transmitted light (1 ms integration) and green fluorescent channels (100 ms integration) at the Zeiss Axio Observer A1 microscope, using 20× short-range objective and the ZEN 2 software (version 2011; Zeiss, Jena, Germany). Immediately after baseline imaging, myofibers were supplemented with 2 mM glucose (#D8375-1 g; Millipore Sigma, St Louis, Mo.) and 50 μM 2-NBDG (#11046; Cayman Chemical, Ann Arbor, Mich.). For insulin-dependent uptake, insulin (#12585014; Thermo Fisher, Waltham, Mass.) was added to a final […] concentration. To control Glut1-/Glut4-dependent uptake, negative control wells were further supplemented with 10 μM cytochalasin B (#C6762; Millipore Sigma, St Louis, Mo.). Myofibers were incubated for 30 minutes in a 37° C./10% CO2 incubator, then washed twice in Ringer's solution and immediately imaged in fresh Ringers' solution, using the same integration and objective settings used for pre-incubation pictures. 2-NBDG uptake was quantitated as relative fluorescent units, calculated as intra-myofiber fluorescence after incubation subtracted of average baseline fluorescence. Fluorescence intensity was quantitated through serial analysis of acquired images (3 areas of approximately 85 μm^2 were analyzed for average fluorescence value per myofiber; >10 myofibers were analyzed per mouse) with ImageJ software (Schneider et al., 2012). All glucose uptake assays were conducted blinded to treatment groups.
Glucose was measured in blood (first drop from tail venipuncture) or serum (5 μl of 1:2 dilution) with an AimStrip Plus glucometer system (Germaine Laboratories, San Antonio, Tex.) and expressed as mg/dl values. Lactate was measured in blood (second drop from tail venipuncture) or serum (5 μl of 1:2 dilution) with a Lactate Plus reader (Nova Biomedical, Waltham, Mass.) and expressed as mM values. Fasting glycemia was measured in mice after 4 hours fasting (7 AM-11 AM). […]

[1] = WT mice on high-fat chow, weekly prednisone, 12 weeks

C[C@]12C=CC(=O)C=C1CC[C@@H]1[C@@H]2C(=O)C[C@@]2(C)[C@H]1CC[C@]2(O)C(=O)CO [prednisone, Prednisone]
ATP and phosphocreatine production of quadriceps ex vivo (10 mM glucose or 1 mM palmitate-BSA, normal and high-fat diet, weekly prednisone 12 weeks): higher levels | gain of body weight (WT mice on high-fat chow, once weekly prednisone 1 mg/kg i.p., 12 weeks, vs vehicle): reduced | accrual of whole-body fat mass and adipocyte mass in the ventral fat pad [1]: reduced | endpoint grip strength and running endurance [1]: significant improvement | gain of hyperglycemia (fasting blood glucose over time) [1]: reduced | retention of lean mass, myofiber mass and specific force [1]: improving | ex vivo uptake of 2-NBDG in freshly isolated myofibers (WT mice on high-fat chow, weekly prednisone, 12 weeks, absence and presence of insulin): improved | body-wide glucose homeostasis (glucose and insulin tolerance tests) (WT mice on high-fat chow, weekly prednisone, 12 weeks, endpoint): improved | oxidative capacity and energy expenditure in the active phase (metabolic cage) (normal or high-fat diet chow, weekly prednisone, 12 weeks): increased

From patent publication US20220062299A1, “USE OF GLUCOCORTICOID STEROIDS IN PREVENTING AND TREATING CONDITIONS OF MUSCLE WASTING, AGING AND METABOLIC DISORDER” (NORTHWESTERN UNIVERSITY, priority 2018, published 2022)
